Read-outs that look alike come from different tables or passages of the source.
Tests used:
[1] = tested on: KPL-4 breast cancer cell line; assay: Tumor cell proliferation assay (CellTiter-Glo, 72 h), KPL-4; assay type: cell-based
Protocol: Biological Assay 4.0: Tumor Cell Proliferation Assays
(§1) Compounds were tested in a cell-based assay that measures the capacity of the compounds to inhibit tumour cell proliferation following a 72h drug exposure. Cell viability is determined using CellTiter-Glow® (CTG, Promega, cat# G7571/2/3). The CellTiter-Glo® Luminescent Cell Viability Assay is a homogeneous method to determine the number of viable cells in culture. Detection is based on using the luciferase reaction to measure the amount of ATP from viable cells. The amount of ATP in cells correlates with cell viability. Within minutes after a loss of membrane integrity, cells lose the ability to synthesize ATP, and endogenous ATPases destroy any remaining ATP; thus the levels of ATP fall precipitously.
(§2) For each cell line assayed, cells were plated onto a separate plate for determination of […] at t=0 hour and t=72 hour time points. Following overnight incubation at 37° C., chemiluminescence values for the t=0 samples were determined after adding 10 μl medium and 100 μl CTG solution according to manufacture protocol. Plates for the t=72 hour time points were treated with compounds diluted into growth medium at ten times final concentration added in 10 μL to the cell culture plate. Cells were then incubated for 72 hours at 37° C. Chemiluminescence values for the t=72 hour samples were determined. […] Experiments were controlled using a reference compound as standard.

MCF7 = assay: Tumor cell proliferation assay (CellTiter-Glo, 72 h), MCF7; assay type: cell-based; settings: Homo sapiens, 72h drug exposure
Protocol: as §1
as §2, with “Cells were plated at 3000-5000 cells/well (depending on the cell lines) in 90 μL growth medium on MTPs (Corning; #3603, black plate, clear flat bottom). For” for “For”

[2] = tested on: p-AKT1/2/3-S473 in KPL4 breast tumour cell line; assay: Cellular p-AKT1/2/3-S473 assay; assay type: cell-based; settings: read-out: pAKT-S743 median IC50
Protocol: The molecular mechanism of action was investigated in a set of experiments to assess the inhibition of the PI3K-AKT-mTOR pathway in responsive cell lines such as KPL4 breast tumour cell line (PIK3CAH1047R, HER20/E and hormone independent). The phospho-substrates of PI3K-AKT-mTOR axis were used as the read-outs to reflect pathway inhibition. Cells were seeded at 60-80% confluency per well in 96-well cell culture plates. After overnight incubation at 37° C. 5% CO2, cells were treated with compounds and vehicle at 37° C. for 2 hours. […] All measurements where at least done in duplicates and confirmed by independent repetition.
Alternatively pAKT-S473 was measured using the “Akt Duplex” of the MULTI-SPOT® Assay System (Fa. Meso Scale Discovery, Cat# N41100B-1) following manufacturers instructions. Each assay used 20 μg of protein extract and measured total AKT and p-AKT content simultaneously in one well. All measurements where at least done in duplicates and confirmed by independent repetition. Values for P-AKT are expressed as percentage of P-AKT level compared to total-AKT content of the extracts.

[3] = biological target: His-tagged human recombinant kinase full-length Akt1 (Homo sapiens (Human), UniProt P31749); assay: Akt1 kinase assay (TR-FRET); assay type: biochemical; settings: 10 μM ATP; read-out: Akt1, median IC50
Sequence of His-tagged human recombinant kinase full-length Akt1 (P31749 whole entry): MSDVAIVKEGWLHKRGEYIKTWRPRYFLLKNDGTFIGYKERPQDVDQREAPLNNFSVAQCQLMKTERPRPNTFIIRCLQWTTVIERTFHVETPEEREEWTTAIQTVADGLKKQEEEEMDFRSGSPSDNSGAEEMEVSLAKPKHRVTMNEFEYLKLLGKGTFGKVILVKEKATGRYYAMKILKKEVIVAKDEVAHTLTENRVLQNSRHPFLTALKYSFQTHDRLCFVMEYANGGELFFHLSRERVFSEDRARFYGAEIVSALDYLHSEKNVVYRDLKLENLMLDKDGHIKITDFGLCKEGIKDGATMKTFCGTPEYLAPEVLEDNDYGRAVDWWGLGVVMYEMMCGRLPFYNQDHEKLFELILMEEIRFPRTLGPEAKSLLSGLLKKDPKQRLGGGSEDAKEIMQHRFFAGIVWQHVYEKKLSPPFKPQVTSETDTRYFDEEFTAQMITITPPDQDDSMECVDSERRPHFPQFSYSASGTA
Protocol: Biological Assay 1.0: Akt1 Kinase Assay
Akt1 inhibitory activity of compounds of the present invention was quantified employing the Akt1 TR-FRET assay as described in the following paragraphs.
As substrate for the kinase reaction the biotinylated peptide biotin-Ahx-[…] (C-terminus in amide form) was used which can be purchased e.g. from the company Biosynthan GmbH (Berlin-Buch, Germany).
For the assay 50 nl of a 100 fold concentrated solution of the test compound in DMSO was pipetted into a black low volume 384 well microtiter plate (Greiner Bio-One, Frickenhausen, Germany), 2 μl of a solution of Akt1 in assay buffer [50 mM TRIS/HCl pH 7.5, 5 mM MgCl2, 1 mM dithiothreitol, 0.02% (v/v) Triton X-100 (Sigma)] were added and the mixture was incubated for 15 min at 22° C. to allow prebinding of the test compounds to the enzyme before the start of the kinase reaction. […] The concentration of Akt1 in the assay was adjusted depending of the activity of the enzyme lot and was chosen appropriate to have the assay in the linear range, typical enzyme concentrations were in the range of about 0.05 ng/μl (final conc. in the 5 μl assay volume).
The resulting mixture was incubated 1 h at 22° C. to allow the binding of the biotinylated phosphorylated peptide to the streptavidine-XL665 and the antibodies. Subsequently the amount of phosphorylated substrate was evaluated by measurement of the resonance energy transfer from the anti-mouse-IgG-Eu-Chelate to the streptavidine-XL665.

[4] = KPL4 breast tumour cell line, 2 hours treatment

SMILES | IC50 ([1]; KPL4, 72h drug exposure) | IC50 (MCF7) | IC50 [2, 4] | IC50 [3] | IC50 ([2]; KPL4, 2 h) | IC50 ([1]; 72h drug exposure)
COC(=O)c1cc(OC)c2nc(-c3ccc(C4(N)CCC4)cc3)c(-c3ccccc3)n2c1 [Example 1-12] | 8300 nM | 800 nM | 276 nM |  |  | 
NC1(c2ccc(-c3nc4ccc(-n5cccn5)cn4c3-c3ccccc3)cc2)CCC1 [Example 1-16] | 2000 nM | 1800 nM | 359 nM |  |  | 
NC1(c2ccc(-c3nc4c(-c5ccc(F)cc5)cccn4c3-c3ccccc3)cc2)CCC1 [Example 2-68, 1-{4-[8-(4-fluorophenyl)-3-phenyl-imidazo[1,2-a]pyridin-2-yl]-phenyl}-cyclobutylamine] | 3100 nM | 1900 nM | 748 nM | 308 nM |  | 
NC1(c2ccc(-c3nc4c(-c5cccc(F)c5)cccn4c3-c3ccccc3)cc2)CCC1 [Example 2-69] | 2900 nM | 1800 nM | 796 nM | 208 nM |  | 
COc1cncc(-c2cccn3c(-c4ccccc4)c(-c4ccc(C5(N)CCC5)cc4)nc23)c1 [Example 2-70] | 2000 nM | 1600 nM | 298 nM |  |  | 
NC1(c2ccc(-c3nc4c(-c5ccn[nH]5)cccn4c3-c3ccccc3)cc2)CCC1 [Example 2-71] | 1900 nM | 1600 nM | 153 nM | 64 nM |  | 
NC1(c2ccc(-c3nc4c(-c5ccc6cn[nH]c6c5)cccn4c3-c3ccccc3)cc2)CCC1 [Example 2-72] | 2100 nM | 1700 nM | 814 nM | 390 nM |  | 
CC(=O)c1ccn2c(-c3ccccc3)c(-c3ccc(C4(N)CCC4)cc3)nc2c1 [Example 2-128] | 4400 nM | 1700 nM | 471 nM | 175 nM |  | 
NC1(c2ccc(-c3nc4ccc(-c5ncc[nH]5)cn4c3-c3ccccc3)cc2)CCC1 [Example 2-130] | 8400 nM | 1800 nM | 731 nM | 321 nM |  | 
NC1(c2ccc(-c3nc4ccc(-c5ccccn5)cn4c3-c3ccccc3)cc2)CCC1 [Example 2-138] | 2400 nM |  | 541 nM | 530 nM |  | 
NC1(c2ccc(-c3nc4ccc(Br)cn4c3-c3ccccc3)cc2)CCC1 [Example 2-139] | 2000 nM |  |  | 44 nM | 181 nM | 
COC(=O)/C=C/c1ccc2nc(-c3ccc(C4(N)CCC4)cc3)c(-c3ccccc3)n2c1 [Example 2-141] |  |  | 361 nM | 196 nM |  | 5300 nM
NC(=O)/C=C/c1ccc2nc(-c3ccc(C4(N)CCC4)cc3)c(-c3ccccc3)n2c1 [Example 2-142] | 2600 nM |  | 114 nM | 347 nM |  | 
Cn1cc(-c2ccn3c(-c4ccccc4)c(-c4ccc(C5(N)CCC5)cc4)nc3c2)cn1 [Example 2-150] | 1700 nM |  | 66 nM | 558 nM |  | 
CC(=O)Nc1ccn2c(-c3ccccc3)c(-c3ccc(C4(N)CCC4)cc3)nc2c1 [Example 2-152] | 1800 nM | 1700 nM | 185 nM | 554 nM |  | 
NC(=O)Nc1ccn2c(-c3ccccc3)c(-c3ccc(C4(N)CCC4)cc3)nc2c1 [Example 2-153] | 10000 nM | 400 nM | 1640 nM | 457 nM |  | 
CON(C)C(=O)c1ccn2c(-c3ccccc3)c(-c3ccc(C4(N)CCC4)cc3)nc2c1 [Example 2-154] | 7500 nM | 1700 nM | 720 nM | 2150 nM |  | 
NC(=O)Nc1ccc2nc(-c3ccc(C4(N)CCC4)cc3)c(-c3ccccc3)n2c1 [Example 2-157] | 10000 nM | 1100 nM | 965 nM |  |  | 
CNC(=O)Nc1ccc2nc(-c3ccc(C4(N)CCC4)cc3)c(-c3ccccc3)n2c1 [Example 2-158] | 4700 nM | 1700 nM | 384 nM | 327 nM |  | 
NCCOc1ccn2c(-c3ccccc3)c(-c3ccc(C4(N)CCC4)cc3)nc2n1 [Example 4-0, 1-{4-[7-(2-amino-ethoxy)-3-phenyl-imidazo[1,2-a]pyrimidin-2-yl]-phenyl}-cyclobutylamine] | 4600 nM |  | 1460 nM | 548 nM |  | 
NC1(c2ccc(-c3nc4ccc(O)cn4c3-c3ccccc3)cc2)CCC1 [Example 5-0, 2-[4-(1-amino-cyclobutyl)-phenyl]-3-phenyl-imidazo[1,2-a]pyridin-6-ol] | 3200 nM |  | 103 nM | 303 nM |  | 
NC1(c2ccc(-c3nc4c(O)cccn4c3-c3ccccc3)cc2)CCC1 [Example 5-1, 2-[4-(1-amino-cyclobutyl)-phenyl]-3-phenyl-imidazo[1,2-a]pyridin-8-ol] | 10000 nM |  | 3480 nM | 590 nM |  | 
C#Cc1ccn2c(-c3ccccc3)c(-c3ccc(C4(N)CCC4)cc3)nc2c1 [Example 7-0, 1-[4-(7-ethynyl-3-phenyl-imidazo[1,2-a]pyridin-2-yl)-phenyl]-cyclobutylamine] | 2400 nM |  | 1770 nM | 1660 nM |  | 
NC(=O)CCc1ccn2c(-c3ccccc3)c(-c3ccc(C4(N)CCC4)cc3)nc2c1 [Example 8-0, 3-{2-[4-(1-amino-cyclobutyl)-phenyl]-3-phenyl-imidazo[1,2-a]pyridin-7-yl}-propionamide] | 10000 nM |  | 1270 nM | 12700 nM |  | 
COC(=O)COc1ccn2c(-c3ccccc3)c(-c3ccc(C4(N)CCC4)cc3)nc2c1 [Example 9-0, {2-[4-(1-amino-cyclobutyl)-phenyl]-3-phenyl-imidazo[1,2-a]pyridin-7-yloxy}-acetic acid methyl ester] | 2500 nM |  | 923 nM | 158 nM |  | 
NC(=O)COc1ccn2c(-c3ccccc3)c(-c3ccc(C4(N)CCC4)cc3)nc2c1 [Example 9-1] | 1700 nM |  | 90 nM | 397 nM |  | 
CN(C)C(=O)COc1ccn2c(-c3ccccc3)c(-c3ccc(C4(N)CCC4)cc3)nc2c1 [Example 9-2] | 900 nM |  | 25 nM | 258 nM |  | 
COC(=O)COc1ccc2nc(-c3ccc(C4(N)CCC4)cc3)c(-c3ccccc3)n2c1 [Example 9-4] | 3100 nM |  | 6470 nM | 179 nM |  | 
N#CCOc1ccc2nc(-c3ccc(C4(N)CCC4)cc3)c(-c3ccccc3)n2c1 [Example 9-5] | 2200 nM |  | 51 nM | 96 nM |  | 
NC1(c2ccc(-c3nc4cc(O)ccn4c3-c3ccccc3)cc2)CCC1 [Example 10-0, 2-[4-(1-amino-cyclobutyl)-phenyl]-3-phenyl-imidazo[1,2-a]pyridin-7-ol] | 7900 nM |  | 308 nM | 1270 nM |  | 

Source: US8975265B2, “Substituted imidazo[1,2-a]pyrimidines and —pyridines” (Bayer Intellectual Property GmbH, priority 2010, dated 2015)
